Results: patent US20030234382A1, “Sterilizing composition and method for sterilizing using the same” (NIPPON PEROXIDE CO., LTD., priority 2002, published 2003)

Tested on: chaetomium spore
Test: Sterilizing power test (D value) against chaetomium spores
Assay type: cell-based
Conditions: 40° C.; chaetomium spore solution 4×10^6 CFU/ml; peracetic acid and agent concentrations per experiment (c1-c3)
Method: 95 g of tap water was added to 5 g of an equilibrated peracetic acid solution containing 4 wt % of peracetic acid, 16 wt % of hydrogen peroxide and 15 wt % of acetic acid, and the resultant mixture was stirred to prepare a uniform aqueous solution. A peracetic acid concentration of the aqueous solution thus prepared was 2,000 ppm.
Each of sterilizing power test sample solutions was prepared by adding a predetermined amount of each of peracetic acid sterilizing power-improving agents shown in the following Table 1 to the peracetic acid aqueous solution prepared in the above paragraph (a) and stirring the mixture.
100 ml of the above prepared test sample solution was placed in an Erlenmeyer flask, and was maintained at 40° C. 1 ml of a chaetomium spore solution having an inoculated bacteria number of 4×10^6 CFU/ml was inoculated therein, and 1 ml of a sample was taken from the Erlenmeyer flask respectively at 10 seconds, 20 seconds, 30 seconds, 60 seconds and 120 seconds after the inoculation. […] Thereafter, a number of live bacteria remaining in each sample optionally diluted was measured in accordance with plate mix-diluting cuture method using a potato dextrose agar medium, and a D value (time (unit: minute) taken to reduce a bacteria number to 1/10) was determined as a standard of sterilizing power. […]

SMILES: OCCc1ccccc1 [compound 8]
- D40 (D value: time taken to reduce a bacteria number to 1/10): 238 min
